Reference: the NIST ThermoML archive (doi:10.1021/je050484k)

Columns and labels:
[1] = xn = mol fraction of the nth substance listed; conditions: for surface tension liquid-gas: Pendant drop shape; for mass density: 101 kPa, Liquid
[2] = for surface tension liquid-gas: Pendant drop shape; for mass density: 101 kPa, Liquid

Cc1cc(C)cc(C)c1 [1,3,5-trimethylbenzene] + COCCO
[1]
Conditions	mass density [kg/m3]	surface tension liquid-gas [mN/m]
298.15 K, x2 = 0	861.05	28.09
298.15 K, x2 = 0.0486	862.67	–
298.15 K, x2 = 0.0993	865.02	28.19
298.15 K, x2 = 0.1546	867.91	–
298.15 K, x2 = 0.2021	870.67	28.23
298.15 K, x2 = 0.2469	873.41	–
298.15 K, x2 = 0.3015	877.06	28.34
298.15 K, x2 = 0.3469	880.3	–
298.15 K, x2 = 0.4011	884.41	28.51
298.15 K, x2 = 0.45	888.41	–
298.15 K, x2 = 0.501	892.85	28.73
298.15 K, x2 = 0.5508	897.5	–
298.15 K, x2 = 0.6004	902.45	29.03
298.15 K, x2 = 0.6509	907.91	–
298.15 K, x2 = 0.7003	913.59	29.35
298.15 K, x2 = 0.7483	919.54	–
298.15 K, x2 = 0.8008	926.64	29.72
298.15 K, x2 = 0.8501	933.84	–
298.15 K, x2 = 0.9001	941.83	30.2
298.15 K, x2 = 0.9502	950.56	–
313.15 K, x2 = 0	848.74	26.82
313.15 K, x2 = 0.0518	850.28	–
313.15 K, x2 = 0.0979	852.21	26.93
313.15 K, x2 = 0.1489	854.71	–
313.15 K, x2 = 0.198	857.38	26.91
313.15 K, x2 = 0.2497	860.47	–
313.15 K, x2 = 0.3009	863.78	26.97
313.15 K, x2 = 0.349	867.13	–
313.15 K, x2 = 0.3988	870.82	27.02
313.15 K, x2 = 0.4527	875.14	–
313.15 K, x2 = 0.5005	879.25	27.13
313.15 K, x2 = 0.5497	883.79	–
313.15 K, x2 = 0.6003	888.79	27.36
313.15 K, x2 = 0.6491	893.96	–
313.15 K, x2 = 0.6995	899.77	27.67
313.15 K, x2 = 0.7498	906.04	–
313.15 K, x2 = 0.8001	912.79	28.01
313.15 K, x2 = 0.8374	918.17	–
313.15 K, x2 = 0.9006	928.15	28.55
313.15 K, x2 = 0.9491	936.64	–

Cc1cc(C)cc(C)c1 [1,3,5-trimethylbenzene] + COCCOC
[1], x2 = 0
Conditions	mass density [kg/m3]	surface tension liquid-gas [mN/m]
298.15 K	861.05	28.09
313.15 K	848.74	26.82

COCCO [2-methoxyethan-1-ol]
[2]
Conditions	mass density [kg/m3]	surface tension liquid-gas [mN/m]
298.15 K	960.02	30.88
313.15 K	946.17	29.42

COCCO [2-methoxyethan-1-ol] + Cc1cc(C)cc(C)c1
[1], x1 = 1
Conditions	mass density [kg/m3]	surface tension liquid-gas [mN/m]
298.15 K	960.02	30.88
313.15 K	946.17	29.42

COCCO [2-methoxyethan-1-ol] + Cc1ccc(C)c(C)c1
[1], x1 = 1
Conditions	mass density [kg/m3]	surface tension liquid-gas [mN/m]
298.15 K	960.02	30.88
313.15 K	946.17	29.42
